Assay results published in patent US10849881B2, “Octahydro-cyclobuta[1,2-c;3,4-c′]dipyrrol-2-yl” (Hoffmann-La Roche Inc., priority 2013, dated 2020).

Each compound was assayed against ATX (human His-tagged) (Homo sapiens (Human), UniProt Q13822) (assay: Human ATX enzyme inhibition assay (fluorescence quenching, MR121 substrate)). Settings: 30 nM ATX, 1 μM MR121 substrate, 30° C., pH 8.0.
Format: biochemical
Outline: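 Fluorescence quenching assay with MR121/tryptophan-labelled substrate analogue in Tris-HCl buffer (140 mM NaCl, CaCl2, MgCl2, 0.01% Triton X-100, pH 8.0). Serially diluted compounds were preincubated 15 min at 30 °C with 30 nM ATX (final), then 1 µM substrate (final) added and incubated 15 min at 30 °C.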

Structure (SMILES) | IC50
CC(C)Oc1cc(C(=O)N2C[C@@H]3[C@H]4CN(C(=O)c5ccc(S(N)(=O)=O)cc5)C[C@H]4[C@@H]3C2)cc2ccccc12 [Example 1.062, 4-[(3aS,3bS,6aR,6bR)-5-(4-isopropoxy-naphthalene-2-carbonyl)-octahydro-cyclobuta[1,2-c;3,4-c′]dipyrrole-2-carbonyl]benzenesulfonamide] | 9 nM
CC(C)Oc1cc(C(=O)N2C[C@@H]3[C@H]4CN(C(=O)c5ccc6[nH]nnc6c5)C[C@H]4[C@@H]3C2)cc2c1ccn2C [Example 1.065, [(3aS,3bS,6aR,6bR)-5-(1H-benzotriazole-5-carbonyl)-octahydro-cyclobuta[1,2-c;3,4-c′]dipyrrol-2-yl]-(4-isopropoxy-1-methyl-1H-indol-6-yl)-methanone] | 6.5 nM
O=C(c1ccc2[nH]nnc2c1)N1C[C@@H]2[C@H](C1)[C@H]1CN(C(=O)c3ccc4c(c3)[nH]c3ccc(Cl)cc34)C[C@@H]21 [Example 1.068, [(3aS,3bS,6aR,6bR)-5-(1H-benzotriazole-5-carbonyl)-octahydro-cyclobuta[1,2-c;3,4-c′]dipyrrol-2-yl]-(6-chloro-9H-carbazol-2-yl)-methanone] | 14.3 nM
COCCOc1cc(C(=O)N2C[C@@H]3[C@H]4CN(C(=O)c5ccc6[nH]nnc6c5)C[C@H]4[C@@H]3C2)nc2ccccc12 [Example 1.069, [(3aR,3bS,6aR,6bS)-5-(1H-benzotriazole-5-carbonyl)-octahydro-cyclobuta[1,2-c;3,4-c′]dipyrrol-2-yl]-[4-(2-methoxy-ethoxy)-quinolin-2-yl]-methanone] | 8 nM
O=C(c1ccc2[nH]nnc2c1)N1C[C@@H]2[C@H](C1)[C@H]1CN(C(=O)c3ccc(-c4ccc(Cl)cc4)cn3)C[C@@H]21 [Example 1.072, [(3aR,3bS,6aR,6bS)-5-(1H-benzotriazole-5-carbonyl)-octahydro-cyclobuta[1,2-c;3,4-c′]dipyrrol-2-yl]-[5-(4-chloro-phenyl)-pyridin-2-yl]-methanone] | 6 nM
O=C(c1ccc2[nH]nnc2c1)N1C[C@@H]2[C@H](C1)[C@H]1CN(C(=O)c3ccc(-c4ccc(Cl)cc4)c(=O)[nH]3)C[C@@H]21 [Example 1.075, 6-[(3aR,3bS,6aR,6bS)-5-(1H-benzotriazole-5-carbonyl)-octahydro-cyclobuta[1,2-c;3,4-c′]dipyrrole-2-carbonyl]-3-(4-chloro-phenyl)-1H-pyridin-2-one] | 20 nM
CCOc1cc(C(=O)N2C[C@@H]3[C@H]4CN(C(=O)c5ccc6[nH]nnc6c5)C[C@H]4[C@@H]3C2)nc2cc(Cl)ccc12 [Example 1.076, [(3aR,3bS,6aR,6bS)-5-(1H-benzotriazole-5-carbonyl)-octahydro-cyclobuta [1,2-c;3,4-c′]dipyrrol-2-yl]-(7-chloro-4-ethoxy-quinolin-2-yl)-methanone] | 12.5 nM
CCOc1cc(C(=O)N2C[C@@H]3[C@H](C2)[C@H]2CN(C(=O)[C@@H]4CCc5[nH]nnc5C4)C[C@@H]32)nc2cc(Cl)ccc12 [Example 1.077, (7-chloro-4-ethoxy-quinolin-2-yl)-[(3aR,3bS,6aR,6bS)-5-((R)-4,5,6,7-tetrahydro-1H-benzotriazole-5-carbonyl)-octahydro-cyclobuta[1,2-c;3,4-c′]dipyrrol-2-yl]methanone] | 7.5 nM
COCCOc1cc(C(=O)N2C[C@@H]3[C@H]4CN(C(=O)c5ccc6[nH]nnc6c5)C[C@H]4[C@@H]3C2)nc2cc(C(F)(F)F)ccc12 [Example 1.079, (1H-benzotriazol-5-yl)-{(3aS,3bR,6aS,6bR)-5-[4-(2-methoxy-ethoxy)-7-trifluoromethyl-quinoline-2-carbonyl]-octahydro-cyclobuta[1,2-c;3,4-c′]dipyrrol-2-yl}-methanone] | 31.5 nM
CCOc1c(C(=O)N2C[C@@H]3[C@H]4CN(C(=O)c5ccc6[nH]nnc6c5)C[C@H]4[C@@H]3C2)ccc2c1ccn2CC [Example 1.081, [(3aS,3bS,6aR,6bR)-5-(1H-benzotriazole-5-carbonyl)-octahydro-cyclobuta[1,2-c;3,4-c′]dipyrrol-2-yl]-(4-ethoxy-1-ethyl-1H-indol-5-yl)-methanone] | 7.5 nM
CCOc1cc(C(=O)N2C[C@@H]3[C@H]4CN(C(=O)c5ccc(S(N)(=O)=O)nc5)C[C@H]4[C@@H]3C2)nc2ccccc12 [Example 1.083, 5-[(3aS,3bR,6aS,6bR)-5-(4-ethoxy-quinoline-2-carbonyl)-octahydro-cyclobuta[1,2-c;3,4-c′]dipyrrole-2-carbonyl]-pyridine-2-sulfonic acid amide] | 154 nM

Now those with a lower IC50, led by results:

IC50 | Structure (SMILES)
1 nM | O=C(c1ccc(-c2ccc(Cl)cc2)nc1)N1C[C@@H]2[C@H](C1)[C@H]1CN(C(=O)[C@@H]3CCc4[nH]nnc4C3)C[C@@H]21 [Example 1.063, [6-(4-chloro-phenyl)-pyridin-3-yl]-[(3aR,3bS,6aR,6bS)-5-((R)-4,5,6,7-tetrahydro-1H-benzotriazole-5-carbonyl)-octahydro-cyclobuta[1,2-c;3,4-c′]dipyrrol-2-yl]-methanone]
1 nM | O=C(c1cc2ccccc2c(OCC2CC2)n1)N1C[C@@H]2[C@H](C1)[C@H]1CN(C(=O)[C@@H]3CCc4[nH]nnc4C3)C[C@@H]21 [Example 1.064, (1-cyclopropylmethoxy-isoquinolin-3-yl)-[(3aR,3bS,6aR,6bS)-5-((R)-4,5,6,7-tetrahydro-1H-benzotriazole-5-carbonyl)-octahydro-cyclobuta[1,2-c;3,4-c′]dipyrrol-2-yl]-methanone]
5 nM | CCOc1cc(C(=O)N2C[C@@H]3[C@H]4CN(C(=O)c5ccc6[nH]nnc6c5)C[C@H]4[C@@H]3C2)nc2ccccc12 [Example 1.066, [(3aR,3bS,6aR,6bS)-5-(1H-benzotriazole-5-carbonyl)-octahydro-cyclobuta[1,2-c;3,4-c′]dipyrrol-2-yl]-(4-ethoxy-quinolin-2-yl)-methanone]
5 nM | CC(C)Oc1cc(C(=O)N2C[C@@H]3[C@H]4CN(C(=O)c5ccc6[nH]nnc6c5)C[C@H]4[C@@H]3C2)nc2ccccc12 [Example 1.067, [(3aR,3bS,6aR,6bS)-5-(1H-benzotriazole-5-carbonyl)-octahydro-cyclobuta[1,2-c;3,4-c′]dipyrrol-2-yl]-(4-isopropoxy-quinolin-2-yl)-methanone]
4 nM | CC(C)Oc1cc(C(=O)N2C[C@@H]3[C@H]4CN(C(=O)c5ccc6[nH]nnc6c5)C[C@H]4[C@@H]3C2)nc2cc(C(F)(F)F)ccc12 [Example 1.070, [(3aR,3bS,6aR,6bS)-5-(1H-benzotriazole-5-carbonyl)-octahydro-cyclobuta[1,2-c;3,4-c′]dipyrrol-2-yl]-(4-isopropoxy-7-trifluoromethyl-quinolin-2-yl)-methanone]
3.5 nM | O=C(c1ccc2[nH]nnc2c1)N1C[C@@H]2[C@H](C1)[C@H]1CN(C(=O)c3cc(OCC4CC4)c4ccccc4n3)C[C@@H]21 [Example 1.071, [(3aR,3bS,6aR,6bS)-5-(1H-benzotriazole-5-carbonyl)-octahydro-cyclobuta[1,2-c;3,4-c′]dipyrrol-2-yl]-(4-cyclopropylmethoxy-quinolin-2-yl)-methanone]
3.5 nM | CCOc1nc(C(=O)N2C[C@@H]3[C@H]4CN(C(=O)c5ccc6[nH]nnc6c5)C[C@H]4[C@@H]3C2)cc2ccccc12 [Example 1.073, [(3aR,3bS,6aR,6bS)-5-(1H-benzotriazole-5-carbonyl)-octahydro-cyclobuta[1,2-c;3,4-c′]dipyrrol-2-yl]-(1-ethoxy-isoquinolin-3-yl)-methanone]
5 nM | CCn1ccc2c(OC(C)C)cc(C(=O)N3C[C@@H]4[C@H]5CN(C(=O)c6ccc7[nH]nnc7c6)C[C@H]5[C@@H]4C3)cc21 [Example 1.074, [(3aS,3bS,6aR,6bR)-5-(1H-benzotriazole-5-carbonyl)-octahydro-cyclobuta[1,2-c;3,4-c′]dipyrrol-2-yl]-(1-ethyl-4-isopropoxy-1H-indol-6-yl)-methanone]
3.5 nM | CC(C)Oc1cc(C(=O)N2C[C@@H]3[C@H](C2)[C@H]2CN(C(=O)c4ccc5[nH]nnc5c4)C[C@@H]32)cc2c1CCCC2 [Example 1.078, [(3aS,3bS,6aR,6bR)-5-(1H-benzotriazole-5-carbonyl)-octahydro-cyclobuta[1,2-c;3,4-c′]dipyrrol-2-yl]-(4-isopropoxy-5,6,7,8-tetrahydro-naphthalen-2-yl)-methanone]
2.5 nM | CCOc1cc(C(=O)N2C[C@@H]3[C@H]4CN(C(=O)c5ccc6[nH]nnc6c5)C[C@H]4[C@@H]3C2)nc2ccc(C(F)(F)F)cc12 [Example 1.080, (1H-benzotriazol-5-yl)-[(3aS,3bR,6aS,6bR)-5-(4-ethoxy-6-trifluoromethyl-quinoline-2-carbonyl)-octahydro-cyclobuta[1,2-c;3,4-c′]dipyrrol-2-yl]-methanone]
3 nM | CCn1ccc2c(OCC(F)(F)F)c(C(=O)N3C[C@@H]4[C@H]5CN(C(=O)c6ccc7[nH]nnc7c6)C[C@H]5[C@@H]4C3)ccc21 [Example 1.082, [(3aS,3bS,6aR,6bR)-5-(1H-benzotriazole-5-carbonyl)-octahydro-cyclobuta[1,2-c;3,4-c′]dipyrrol-2-yl]-[1-ethyl-4-(2,2,2-trifluoro-ethoxy)-1H-indol-5-yl]-methanone]
5 nM | O=C(c1ccc2[nH]nnc2c1)N1C[C@@H]2[C@H](C1)[C@H]1CN(C(=O)c3cc(OCC(F)(F)F)c4ccccc4n3)C[C@@H]21 [Example 1.084, (1H-benzotriazol-5-yl)-{(3aS,3bR,6aS,6bR)-5-[4-(2,2,2-trifluoro-ethoxy)-quinoline-2-carbonyl]-octahydro-cyclobuta[1,2-c;3,4-c′]dipyrrol-2-yl}-methanone]
